Results from US4943580A, “Anti-histaminic benzimidazole, imidazopyridine and purine derivatives” (Janssen Pharmaceutica N.V., priority 1989, dated 1990).

System: compound 48/80-induced lethality
Assay: Protection of rats from compound 48/80-induced lethality
Assay type: in vivo, rat (male, inbred Wistar strain)
Conditions: Rattus norvegicus; rats treated subcutaneously or orally 1 hour before compound 48/80 0.5 mg/kg intravenously; 50% of animals protected; survival after 4 hours; read-out: Compound 48/80 lethality test in rats-ED50
Description: Protection of rats from compound […] lethality
Compound 48/80, a mixture of oligomers obtained by condensation of 4-methoxy-N-methylbenzeneethanamine and formaldehyde has been described as a potent histamine releasing agent (Int. Arch. Allergy, 13, 336 (1958)). The protection from compound 48/80-induced lethal circulatory collapse appears to be a simple way of evaluating quantitatively the antihistaminic activity of test compounds. Male rats of an inbred Wistar strain, weighing 240-260 g were used in the experiment. After overnight starvation the rats were transferred to conditioned laboratories (temp.=[…], relative humidity=65±5%). The rats were treated subcutaneously or orally with a test compound or with the solvent (NaCl solution, 0.9%). One hour after treatment there was injected intravenously compound 48/80, freshly dissolved in water, at a dose of 0.5 mg/kg (0.2 ml/100 g of body weight). In control experiments, wherein 250 solvent-treated animals were injected with the standard dose of compound 48/80, not more than 2.8% of the animals survived after 4 hours. Survival after 4 hours is therefore considered to be a safe criterion of a protective effect of drug administration. Said ED50 -values are the values in mg/kg body weight at which the tested compounds protect 50% of the tested animals against compound 48/80-induced lethality.

| Structure (SMILES) | ED50 [mg/kg] |
| --- | --- |
| CCOCCn1c(NC2CCN(CCc3ccc(OC)cc3)CC2)nc2cccnc21 [Compound 45] | 0.02 |
| CCOCCn1c(NC2CCN(CCc3c(C)nc4ccccn4c3=O)CC2)nc2cccnc21 [Compound 46] | 0.01 |
| CCOCCn1c(CC2CCN(CCc3ccc(OC)cc3)CC2)nc2cccnc21 [Compound 59] | 0.02 |
| CCOCCn1c(NC2CCN(CCCC(C)=O)CC2)nc2cccnc21 [Compound 61] | 0.04 |
| CCOCCn1c(CC2CCN(CCc3c(C)nc4ccccn4c3=O)CC2)nc2cccnc21 [Compound 62] | 0.04 |
| CCOCCn1c(NC2CCN(CCCOc3ccc(F)cc3)CC2)nc2cccnc21 [Compound 63] | 0.04 |
| CCOCCn1c(NC2CCN(CCc3c(C)nc4sccn4c3=O)CC2)nc2cccnc21 [Compound 64] | 0.02 |
| CCOCCn1c(NC2CCN(CCCC(=O)c3ccc(F)cc3)CC2)nc2cccnc21 [Compound 65] | 0.02 |
| CCOCCn1c(NC2CCN(CCc3scnc3C)CC2)nc2cccnc21 [Compound 67] | 0.02 |
| CCOCCn1c(NC2CCN(CCn3c(=O)[nH]c4ccccc4c3=O)CC2)nc2cccnc21 [Compound 68] | 0.04 |
| CCOCCn1c(NC2CCN(CCc3c(C)nc4n(c3=O)CCCC4)CC2)nc2cccnc21 [Compound 70] | 0.04 |
| CCOCCn1c(CC2CCN(CCn3c(=O)[nH]c4ccccc43)CC2)nc2cccnc21 [Compound 80] | 0.02 |
| CCOCCn1c(NC2CCN(CCc3cc4ccccc4oc3=O)CC2)nc2cccnc21 [Compound 82] | 0.04 |
| CCOCCn1c(NC2CCN(CCSc3ccccc3)CC2)nc2cccnc21 [Compound 100, 3-(2-ethoxyethyl)-N-[1-[2-(phenylthio)ethyl]-4-piperidinyl]-3H-imidazo [4,5-b]-pyridin-2-amine] | 0.04 |
| CCOCCn1c(NC2CCN(C)CC2)nc2cccnc21 [Compound 108, 3-(2-ethoxyethyl)-N-(1-methyl-4-piperidinyl)-3H-imidazo[4,5-b]pyridin-2-amine] | 0.04 |
| CCOCCn1c(NC2CCN(CC)CC2)nc2cccnc21 [Compound 115] | 0.04 |
| CCOCCn1c(CC2CCN(C)CC2)nc2cccnc21 [Compound 126] | 0.04 |
| CCOCCn1c(CC2CCN(CCNc3ncccn3)CC2)nc2cccnc21 [Compound 131, N-[2-[4-[[3-(2-ethoxyethyl)-3H-imidazo[4,5-b]pyridin-2-yl]methyl]-1-piperidinyl]ethyl]-2-pyrimidinamine] | 0.02 |
| CCOCCn1c(NC2CCN(CCNc3ncccn3)CC2)nc2cccnc21 [Compound 132, 3-(2-ethoxyethyl)-N-[1-[2-(2-pyrimidinylamino)ethyl]-4-piperidinyl]-3H-imidazo[4,5-b]pyridin-2-amine] | 0.01 |
| CCOCCn1c(NC2CCN(CCOc3ncccn3)CC2)nc2cccnc21 [Compound 133, 3-(2-ethoxyethyl)-N-[1-[2-(2-pyrimidinyloxy)ethyl]-4-piperidinyl]-3H-imidazo-[4,5-b]pyridin-2-amine] | 0.02 |
| CCOCCn1c(CC2CCN(CCOc3ncccn3)CC2)nc2cccnc21 [Compound 134, 3-(2-ethoxyethyl)-2-[[1-[2-(2-pyrimidinyloxy)ethyl]4-piperidinyl]methyl]-3H-imidazo-[4,5-b]pyridine] | 0.005 |
| CCOCCn1c(NC2CCN(CCNc3nc4cnccc4[nH]3)CC2)nc2cccnc21 [Compound 141, 3-(2-ethoxyethyl)-N-[1-[2-[(1H-imidazo[4,5-c]pyridin-2-yl)amino]ethyl]-4-piperidinyl]-3H-imidazo[4,5-b]pyridin-2-amine] | 0.02 |
| CCOCCn1c(NC2CCN(CCNC(=O)c3ccoc3)CC2)nc2cccnc21 [Compound 142, N-[2-[4-[[3-(2-ethoxyethyl)-3H-imidazo[4,5-b]pyridin-2-yl]amino]-1-piperidinyl]ethyl]-3-furancarboxamide] | 0.04 |
| CCOCCn1c(NC2CCN(CCNC(=O)c3cccn3C)CC2)nc2cccnc21 [Compound 143, N-[2-[4-[[3-(2-ethoxyethyl)-3H-imidazo[4,5-b]pyridin-2-yl]amino]-1-piperidinyl]ethyl]-1-methyl-1H-pyrrole-2-carboxamide] | 0.02 |
| CCOCCn1c(CC2CCN(CCNC(=O)c3nccs3)CC2)nc2cccnc21 [Compound 144, N-[2-[4-[[3-(2-ethoxyetyyl)-3H-imidazo[4,5-b]pyridin-2-yl]methyl]-1-piperidinyl]ethyl]-2-thiazolecarboxamide] | 0.02 |
| CCOCCn1c(NC2CCN(CCc3ccccn3)CC2)nc2cccnc21 [Compound 151, 3-(2-ethoxyethyl)-N-[1-[2-(2-pyridinyl)ethyl]-4-piperidinyl]-3H-imidazo-[4,5-b]pyridin-2-amine] | 0.02 |
| CCOCCn1c(CC2CCN(CCc3ccccn3)CC2)nc2cccnc21 [Compound 152, 3-(2-ethoxyethyl)-2-[[1-[2-(2-pyridinyl)ethyl]-4-piperidinyl]methyl]-3H-imidazo-[4,5-b]pyridine] | 0.005 |
